Data published in patent publication US11208412B2 (DAEGU-GYEONGBUK MEDICAL INNOVATION FOUNDATION, priority 2017, dated 2021).

Key:
Test in all cases: Kinase selectivity, DiscoverX scanMAX Kinase assay panel (% control)
Assay type in all cases: binding
[1] = target: T1, kinases of the scanMAX Kinase assay panel (Homo sapiens, UniProt O43283); conditions: LZK; 1 uM
T1 construct: purchased DiscoverX Co. (contract measurement) scanMAX Kinase assay panel
T1 sequence (O43283 1-966): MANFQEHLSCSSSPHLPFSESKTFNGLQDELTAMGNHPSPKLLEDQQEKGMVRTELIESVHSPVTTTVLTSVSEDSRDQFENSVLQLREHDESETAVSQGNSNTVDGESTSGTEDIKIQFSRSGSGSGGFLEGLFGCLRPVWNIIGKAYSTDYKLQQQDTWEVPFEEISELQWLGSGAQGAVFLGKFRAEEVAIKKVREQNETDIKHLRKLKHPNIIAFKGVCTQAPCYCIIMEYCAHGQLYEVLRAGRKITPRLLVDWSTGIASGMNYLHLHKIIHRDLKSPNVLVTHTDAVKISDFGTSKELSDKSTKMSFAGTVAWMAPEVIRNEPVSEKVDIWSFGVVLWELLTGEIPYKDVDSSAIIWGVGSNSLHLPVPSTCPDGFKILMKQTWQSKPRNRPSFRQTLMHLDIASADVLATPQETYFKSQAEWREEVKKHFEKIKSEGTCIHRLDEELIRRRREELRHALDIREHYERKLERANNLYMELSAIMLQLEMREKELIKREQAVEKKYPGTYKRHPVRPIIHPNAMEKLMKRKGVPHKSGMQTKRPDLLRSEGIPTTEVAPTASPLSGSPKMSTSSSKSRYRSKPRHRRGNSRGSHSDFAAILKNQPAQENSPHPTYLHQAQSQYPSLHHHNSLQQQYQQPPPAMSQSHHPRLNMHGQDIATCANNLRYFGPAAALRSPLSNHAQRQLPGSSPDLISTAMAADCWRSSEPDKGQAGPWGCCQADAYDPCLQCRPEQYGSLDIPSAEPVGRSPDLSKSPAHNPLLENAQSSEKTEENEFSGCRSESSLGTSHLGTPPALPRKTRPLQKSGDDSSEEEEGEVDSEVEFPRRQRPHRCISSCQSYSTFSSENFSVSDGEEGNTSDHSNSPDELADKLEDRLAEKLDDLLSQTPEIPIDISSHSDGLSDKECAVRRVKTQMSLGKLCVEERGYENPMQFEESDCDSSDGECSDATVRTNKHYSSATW
Outline: (§1)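 Binding-panel profiling at one concentration, 1 uM in DMSO; values are % of DMSO control after subtracting the positive-control floor. Less than 35% means activity on that kinase.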

[2] = target: T2, kinases of the scanMAX Kinase assay panel (Homo sapiens, UniProt O60674); conditions: JAK2(JH1domain-catalytic); 1 uM
T2 construct: purchased DiscoverX Co. (contract measurement) scanMAX Kinase assay panel
T2 sequence (O60674 whole entry): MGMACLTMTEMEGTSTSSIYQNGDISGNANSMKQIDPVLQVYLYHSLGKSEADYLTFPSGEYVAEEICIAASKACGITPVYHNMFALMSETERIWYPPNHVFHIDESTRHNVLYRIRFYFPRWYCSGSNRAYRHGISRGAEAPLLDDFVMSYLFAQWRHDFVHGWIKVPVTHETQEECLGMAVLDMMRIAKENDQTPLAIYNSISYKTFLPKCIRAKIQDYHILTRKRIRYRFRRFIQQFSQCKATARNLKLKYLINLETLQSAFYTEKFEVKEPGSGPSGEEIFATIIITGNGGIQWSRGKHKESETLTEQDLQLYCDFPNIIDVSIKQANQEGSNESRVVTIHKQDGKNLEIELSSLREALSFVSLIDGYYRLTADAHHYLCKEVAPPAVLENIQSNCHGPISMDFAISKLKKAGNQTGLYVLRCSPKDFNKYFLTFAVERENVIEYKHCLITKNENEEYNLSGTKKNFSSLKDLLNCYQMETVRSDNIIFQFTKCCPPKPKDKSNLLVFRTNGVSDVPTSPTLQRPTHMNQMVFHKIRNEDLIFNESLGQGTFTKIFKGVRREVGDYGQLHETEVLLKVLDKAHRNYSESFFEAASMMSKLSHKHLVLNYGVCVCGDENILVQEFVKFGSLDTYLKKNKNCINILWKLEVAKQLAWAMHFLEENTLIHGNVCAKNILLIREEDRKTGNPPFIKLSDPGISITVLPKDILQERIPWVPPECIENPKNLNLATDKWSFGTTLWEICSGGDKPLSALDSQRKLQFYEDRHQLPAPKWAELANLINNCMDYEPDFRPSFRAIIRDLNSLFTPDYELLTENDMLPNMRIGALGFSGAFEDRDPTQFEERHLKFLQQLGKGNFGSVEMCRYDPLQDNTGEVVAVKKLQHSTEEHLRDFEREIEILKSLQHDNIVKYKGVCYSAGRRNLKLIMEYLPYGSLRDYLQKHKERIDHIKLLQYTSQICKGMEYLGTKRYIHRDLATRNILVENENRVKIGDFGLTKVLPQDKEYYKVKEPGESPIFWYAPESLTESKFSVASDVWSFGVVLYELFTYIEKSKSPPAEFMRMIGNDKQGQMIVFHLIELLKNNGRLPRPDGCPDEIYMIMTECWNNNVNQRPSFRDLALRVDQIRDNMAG
Outline: as §1

[3] = target: T3, kinases of the scanMAX Kinase assay panel (Homo sapiens, UniProt P54760); conditions: EPHB4; 1 uM
T3 construct: purchased DiscoverX Co. (contract measurement) scanMAX Kinase assay panel
T3 sequence (P54760 16-987): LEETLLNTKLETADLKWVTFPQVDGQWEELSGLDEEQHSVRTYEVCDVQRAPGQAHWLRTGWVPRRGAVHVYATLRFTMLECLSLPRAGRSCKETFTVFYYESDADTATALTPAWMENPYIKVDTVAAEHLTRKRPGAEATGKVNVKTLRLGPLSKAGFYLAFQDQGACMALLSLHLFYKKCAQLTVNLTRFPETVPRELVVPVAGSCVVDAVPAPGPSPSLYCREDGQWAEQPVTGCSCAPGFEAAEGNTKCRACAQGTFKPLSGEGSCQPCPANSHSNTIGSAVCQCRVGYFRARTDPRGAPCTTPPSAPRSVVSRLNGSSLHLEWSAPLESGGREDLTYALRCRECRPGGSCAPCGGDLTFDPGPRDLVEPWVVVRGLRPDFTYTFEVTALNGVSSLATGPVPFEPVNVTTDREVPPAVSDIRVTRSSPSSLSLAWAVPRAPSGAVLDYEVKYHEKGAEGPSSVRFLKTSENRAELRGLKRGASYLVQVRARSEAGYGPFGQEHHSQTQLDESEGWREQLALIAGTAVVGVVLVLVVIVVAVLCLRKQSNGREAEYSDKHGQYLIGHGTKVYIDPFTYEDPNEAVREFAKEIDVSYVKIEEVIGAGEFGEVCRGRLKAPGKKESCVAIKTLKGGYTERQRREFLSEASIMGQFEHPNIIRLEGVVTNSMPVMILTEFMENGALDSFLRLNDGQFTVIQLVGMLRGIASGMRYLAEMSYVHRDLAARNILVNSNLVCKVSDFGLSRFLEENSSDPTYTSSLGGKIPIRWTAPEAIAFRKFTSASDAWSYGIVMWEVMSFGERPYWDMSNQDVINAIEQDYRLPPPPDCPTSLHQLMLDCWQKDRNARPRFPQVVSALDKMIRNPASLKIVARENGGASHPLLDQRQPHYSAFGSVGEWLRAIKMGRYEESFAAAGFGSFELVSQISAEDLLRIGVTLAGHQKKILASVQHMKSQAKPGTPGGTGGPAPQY
Outline: as §1

[4] = target: T4, kinases of the scanMAX Kinase assay panel (Homo sapiens, UniProt Q86UE8); conditions: kinase TLK2; 1 uM in DMSO
T4 construct: purchased DiscoverX Co. (contract measurement) scanMAX Kinase assay panel
T4 sequence (Q86UE8 whole entry): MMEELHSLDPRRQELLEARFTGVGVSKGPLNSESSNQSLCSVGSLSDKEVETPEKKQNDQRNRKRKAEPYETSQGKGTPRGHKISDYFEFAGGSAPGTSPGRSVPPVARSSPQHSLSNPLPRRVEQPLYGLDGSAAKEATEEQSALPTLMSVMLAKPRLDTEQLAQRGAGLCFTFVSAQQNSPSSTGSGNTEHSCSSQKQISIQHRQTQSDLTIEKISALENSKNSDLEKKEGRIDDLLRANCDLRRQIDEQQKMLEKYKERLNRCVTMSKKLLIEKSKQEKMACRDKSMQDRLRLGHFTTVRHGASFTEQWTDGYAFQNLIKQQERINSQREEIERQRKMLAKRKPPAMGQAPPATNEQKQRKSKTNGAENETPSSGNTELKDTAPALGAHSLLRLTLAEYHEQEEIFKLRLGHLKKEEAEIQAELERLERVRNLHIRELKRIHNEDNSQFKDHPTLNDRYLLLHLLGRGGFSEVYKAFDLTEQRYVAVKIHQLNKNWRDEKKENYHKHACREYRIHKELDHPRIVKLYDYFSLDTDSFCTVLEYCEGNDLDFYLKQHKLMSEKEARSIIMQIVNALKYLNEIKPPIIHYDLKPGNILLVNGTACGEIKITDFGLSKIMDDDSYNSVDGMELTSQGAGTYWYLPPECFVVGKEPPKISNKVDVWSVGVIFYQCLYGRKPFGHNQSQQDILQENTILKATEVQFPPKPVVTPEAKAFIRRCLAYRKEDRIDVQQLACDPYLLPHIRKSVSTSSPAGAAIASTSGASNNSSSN
Outline: as §1

SMILES	remaining binding at 1 µM [1]	remaining binding at 1 µM [2]	remaining binding at 1 µM [3]	remaining binding at 1 µM [4]
CC1(Nc2nc(Nc3cnn([C@H]4CCN(C5COC5)C[C@@H]4F)c3Cl)nc3[nH]cc(C#N)c23)CC1 [Example 52, 2-((5-chloro-1-((3S,4S)-3-fluoro-1-(oxetane-3-yl)piperidine-4-yl)-1H-pyrazole-4-yl)amino)((1-methylcyclopropyl)amino)-7H-pyrrolo[2,3-d]pyrimidine-5-carbonitrile]	16%	0%	48%	42%
CNc1nc(Nc2ccc(C(=O)N3CCOCC3)cc2OC)nc2[nH]cc(C#N)c12 [Example 1, 2-((2-methoxy-4-(morpholine-4-carbonyl)phenyl)amino)-4-(methylamino)-7H-pyrrolo[2,3-d]pyrimidine-5-carbonitrile]	81%	83%	95%	95%
CCNc1nc(Nc2ccc(C(=O)N3CCC(N4CCOCC4)CC3)cc2OC)nc2[nH]cc(C(F)(F)F)c12 [Example 104, (4-((4-(ethylamino)-5-(trifluoromethyl)-7H-pyrrolo[2,3-d]pyrimidine-2-yl)amino)-3-methoxyphenyl)(4-morpholinopiperidine-1-yl)methanone]	100%	100%	100%	93%
